Results published in ChEMBL document CHEMBL1156737, “Terpenoids. III: Synthesis and biological evaluation of 23-hydroxybetulinic acid derivatives as novel inhibitors of glycogen phosphorylase” (Bioorg Med Chem Lett, 2009).

Target: T1, Glycogen phosphorylase, muscle form (Oryctolagus cuniculus, UniProt P00489)
T1 sequence (P00489 whole entry): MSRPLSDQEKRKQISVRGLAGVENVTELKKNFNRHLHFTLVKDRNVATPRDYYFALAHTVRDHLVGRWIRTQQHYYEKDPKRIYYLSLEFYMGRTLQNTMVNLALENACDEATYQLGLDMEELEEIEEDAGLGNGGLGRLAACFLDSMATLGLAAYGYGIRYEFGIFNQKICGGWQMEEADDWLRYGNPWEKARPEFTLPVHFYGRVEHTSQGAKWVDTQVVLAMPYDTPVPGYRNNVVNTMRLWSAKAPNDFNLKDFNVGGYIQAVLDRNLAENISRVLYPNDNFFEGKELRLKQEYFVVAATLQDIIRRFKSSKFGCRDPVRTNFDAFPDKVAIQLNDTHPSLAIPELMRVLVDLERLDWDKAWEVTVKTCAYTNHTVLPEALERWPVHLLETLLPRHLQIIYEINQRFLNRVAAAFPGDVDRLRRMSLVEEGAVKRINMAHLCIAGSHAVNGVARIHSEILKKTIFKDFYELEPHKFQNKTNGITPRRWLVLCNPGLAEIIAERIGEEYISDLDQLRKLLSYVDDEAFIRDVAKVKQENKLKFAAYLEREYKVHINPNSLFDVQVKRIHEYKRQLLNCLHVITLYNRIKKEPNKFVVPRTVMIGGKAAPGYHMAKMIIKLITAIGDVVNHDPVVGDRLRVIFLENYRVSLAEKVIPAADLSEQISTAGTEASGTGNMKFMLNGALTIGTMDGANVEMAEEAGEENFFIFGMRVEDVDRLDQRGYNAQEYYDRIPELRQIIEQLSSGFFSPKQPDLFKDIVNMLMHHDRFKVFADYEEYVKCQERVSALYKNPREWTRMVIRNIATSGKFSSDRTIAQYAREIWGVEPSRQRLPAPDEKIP
Assay: Inhibition of rabbit muscle glycogen phosphorylase A assessed as release of phosphate from glucose-1-phosphate after 25 mins; call rule not given here

Row | IC50 (read-out: IC50) [µM] | IC50 | SMILES
1 | 15.2 |  | C=C(C)[C@@H]1CC[C@]2(C(=O)NCCCN)CC[C@]3(C)[C@H](CC[C@@H]4[C@@]5(C)CC[C@H](OC(C)=O)[C@@](C)(COC(C)=O)[C@@H]5CC[C@]43C)[C@@H]12
2 | 10.2 |  | C=C(C)[C@@H]1CC[C@]2(C(=O)NCCCCCCN)CC[C@]3(C)[C@H](CC[C@@H]4[C@@]5(C)CC[C@H](O)[C@@](C)(CO)[C@@H]5CC[C@]43C)[C@@H]12
3 | 194 |  | C=C(C)[C@@H]1CC[C@]2(C(=O)OCC#CCO)CC[C@]3(C)[C@H](CC[C@@H]4[C@@]5(C)CC[C@H](O)[C@@](C)(CO)[C@@H]5CC[C@]43C)[C@@H]12
4 | 67.7 |  | C=C(C)[C@@H]1CC[C@]2(C(=O)NCC(=O)O)CC[C@]3(C)[C@H](CC[C@@H]4[C@@]5(C)CC[C@H](O)[C@@](C)(CO)[C@@H]5CC[C@]43C)[C@@H]12
5 | 29.5 |  | C=C(C)[C@@H]1CC[C@]2(C(=O)NCCCCCCNCC)CC[C@]3(C)[C@H](CC[C@@H]4[C@@]5(C)CC[C@H](OC(C)=O)[C@@](C)(COC(C)=O)[C@@H]5CC[C@]43C)[C@@H]12
6 | 72.8 |  | C=C(C)[C@@H]1CC[C@]2(C(=O)NCCCN(CC)CC)CC[C@]3(C)[C@H](CC[C@@H]4[C@@]5(C)CC[C@H](OC(C)=O)[C@@](C)(COC(C)=O)[C@@H]5CC[C@]43C)[C@@H]12
7 | 96.6 |  | C=C(C)[C@@H]1CC[C@]2(C(=O)OCCN(CCCCCCNC(C)=O)C(C)=O)CC[C@]3(C)[C@H](CC[C@@H]4[C@@]5(C)CC[C@H](OC(C)=O)[C@@](C)(COC(C)=O)[C@@H]5CC[C@]43C)[C@@H]12
8 | 19.1 |  | C=C(C)[C@@H]1CC[C@]2(COC(=O)C(=O)OCC#CCO)CC[C@]3(C)[C@@H](CC[C@@H]4[C@@]5(C)CC[C@H](OC(=O)C(=O)OCC#CCO)[C@@](C)(COC(=O)C(=O)OCC#CCO)[C@@H]5CC[C@]43C)C12 (some centres undefined)
9 | 69.2 |  | C=C(C)[C@@H]1CC[C@]2(C(=O)OCCCCCCOC(=O)c3ccccc3C(=O)O)CC[C@]3(C)[C@H](CC[C@@H]4[C@@]5(C)CC[C@H](OC(C)=O)[C@@](C)(COC(C)=O)[C@@H]5CC[C@]43C)[C@@H]12
10 | 40.6 |  | C=C(C)[C@@H]1CC[C@]2(C(=O)NCC(=O)N[C@@H](Cc3ccccc3)C(=O)OC)CC[C@]3(C)[C@H](CC[C@@H]4[C@@]5(C)CC[C@H](O)[C@@](C)(CO)[C@@H]5CC[C@]43C)[C@@H]12
11 | 69.1 |  | C=C(C)[C@@H]1CC[C@]2(C(=O)OCCCCCC)CC[C@]3(C)[C@H](CC[C@@H]4[C@@]5(C)CC[C@H](O)[C@@](C)(CO)[C@@H]5CC[C@]43C)[C@@H]12
12 | 3.5 |  | C=C(C)[C@@H]1CC[C@]2(C(=O)NCCCCCCN)CC[C@]3(C)[C@H](CC[C@@H]4[C@@]5(C)CC[C@H](OC(C)=O)[C@@](C)(COC(C)=O)[C@@H]5CC[C@]43C)[C@@H]12
13 | 103 |  | C=C(C)[C@@H]1CC[C@]2(C(=O)NCC(=O)OC)CC[C@]3(C)[C@H](CC[C@@H]4[C@@]5(C)CC[C@H](OC(C)=O)[C@@](C)(COC(C)=O)[C@@H]5CC[C@]43C)[C@@H]12
14 | 54.8 |  | C=C(C)[C@@H]1CC[C@]2(C(=O)NCCCCCCNC(=O)/C=C/C(=O)O)CC[C@]3(C)[C@H](CC[C@@H]4[C@@]5(C)CC[C@H](OC(C)=O)[C@@](C)(COC(C)=O)[C@@H]5CC[C@]43C)[C@@H]12
15 | 23.8 |  | C=C(C)[C@@H]1CC[C@]2(C(=O)NCCCN)CC[C@]3(C)[C@H](CC[C@@H]4[C@@]5(C)CC[C@H](O)[C@@](C)(CO)[C@@H]5CC[C@]43C)[C@@H]12
16 | 94.5 |  | C=C(C)[C@@H]1CC[C@]2(C(=O)OCC#CCOC(=O)CCC(=O)O)CC[C@]3(C)[C@H](CC[C@@H]4[C@@]5(C)CC[C@H](OC(C)=O)[C@@](C)(COC(C)=O)[C@@H]5CC[C@]43C)[C@@H]12
17 | 30.1 |  | C=C(C)[C@@H]1CC[C@]2(COC(=O)C(=O)OC)CC[C@]3(C)[C@H](CC[C@@H]4[C@@]5(C)CC[C@H](OC(=O)C(=O)OC)[C@@](C)(COC(=O)C(=O)OC)[C@@H]5CC[C@]43C)[C@@H]12
18 | 35.9 |  | C=C(C)[C@@H]1CC[C@]2(COC(=O)C(=O)NC(C)C)CC[C@]3(C)[C@H](CC[C@@H]4[C@@]5(C)CC[C@H](OC(=O)C(=O)NC(C)C)[C@@](C)(COC(=O)C(=O)NC(C)C)[C@@H]5CC[C@]43C)[C@@H]12
19 |  | Not Active | C=C(C)[C@@H]1CC[C@]2(C(=O)NCCCC)CC[C@]3(C)[C@H](CC[C@@H]4[C@@]5(C)CC[C@H](OC(=O)C(=O)NCCCC)[C@@](C)(COC(=O)C(=O)NCCCC)[C@@H]5CC[C@]43C)[C@@H]12
20 | 194 |  | C=C(C)[C@@H]1CC[C@]2(C(=O)NCCCCCCNC(=O)CCC(=O)O)CC[C@]3(C)[C@H](CC[C@@H]4[C@@]5(C)CC[C@H](OC(C)=O)[C@@](C)(COC(C)=O)[C@@H]5CC[C@]43C)[C@@H]12
21 | 34.7 |  | C=C(C)[C@@H]1CC[C@]2(COC(=O)C(=O)NCCCC)CC[C@]3(C)[C@H](CC[C@@H]4[C@@]5(C)CC[C@H](OC(=O)C(=O)NCCCC)[C@@](C)(COC(=O)C(=O)NCCCC)[C@@H]5CC[C@]43C)[C@@H]12
22 | 97.8 |  | C=C(C)[C@@H]1CC[C@]2(COC(=O)CCC(=O)O)CC[C@]3(C)[C@H](CC[C@@H]4[C@@]5(C)CC[C@H](OC(=O)CCC(=O)O)[C@@](C)(COC(=O)CCC(=O)O)[C@@H]5CC[C@]43C)[C@@H]12
23 | 143 |  | C=C(C)[C@@H]1CC[C@]2(COC(C)=O)CC[C@]3(C)[C@H](CC[C@@H]4[C@@]5(C)CC[C@H](OC(C)=O)[C@@](C)(COC(C)=O)[C@@H]5CC[C@]43C)[C@@H]12
24 | 129 |  | C=C(C)[C@@H]1CC[C@]2(C(=O)NCC(=O)N[C@@H](Cc3ccccc3)C(=O)O)CC[C@]3(C)[C@H](CC[C@@H]4[C@@]5(C)CC[C@H](O)[C@@](C)(CO)[C@@H]5CC[C@]43C)[C@@H]12
25 | 55.6 |  | C=C(C)[C@@H]1CC[C@]2(C(=O)NCCCCCCN(CC)CC)CC[C@]3(C)[C@H](CC[C@@H]4[C@@]5(C)CC[C@H](OC(C)=O)[C@@](C)(COC(C)=O)[C@@H]5CC[C@]43C)[C@@H]12
26 | 289 |  | C=C(C)[C@@H]1CC[C@]2(C(=O)OCCBr)CC[C@]3(C)[C@H](CC[C@@H]4[C@@]5(C)CC[C@H](O)[C@@](C)(CO)[C@@H]5CC[C@]43C)[C@@H]12
27 | 34.1 |  | C=C(C)[C@@H]1CC[C@]2(C(=O)NCCCCCCNC(C)=O)CC[C@]3(C)[C@H](CC[C@@H]4[C@@]5(C)CC[C@H](OC(C)=O)[C@@](C)(COC(C)=O)[C@@H]5CC[C@]43C)[C@@H]12
28 | 50.4 |  | C=C(C)[C@@H]1CC[C@]2(C(=O)OC3CCCCC3)CC[C@]3(C)[C@H](CC[C@@H]4[C@@]5(C)CC[C@H](O)[C@@](C)(CO)[C@@H]5CC[C@]43C)[C@@H]12

Row | SMILES | IC50 (read-out: IC50) [µM] | IC50
29 | C=C(C)[C@@H]1CC[C@]2(C(=O)O)CC[C@]3(C)[C@H](CC[C@@H]4[C@@]5(C)CC[C@H](O)[C@@](C)(CO)[C@@H]5CC[C@]43C)[C@@H]12 | 103 | 
